Assay results published in the supplement of paper PMC9013687.

How the values were obtained:
Danio rerio embryo [1] = test: spontaneous tail coiling frequency (coils/min/embryo); higher = more spontaneous movement; conditions: 25 hpf
Experimental: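 Spontaneous tail coilings of zebrafish embryos exposed from 2 hpf were recorded at 24-25 hpf in 1-min videos and detected by a KNIME workflow from grey-value variance. Betamethasone was tested as the dipropionate, diflorasone as the diacetate.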

Danio rerio embryo [2] = test system: Danio rerio embryo
Experimental: (§1)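 Zebrafish embryos (UFZ-OBI strain) were exposed from 2 hpf for 48 h (2 dpf) or 96 h (4 dpf) at 28 °C; spontaneous tail coiling was scored at 25 hpf. Morphological features from automated image analysis (FishInspector), heart rate and locomotor response were fitted with drc models. Quantal endpoints were dichotomised at 2.5 SD from controls and fitted with a log-logistic model; heart rate, pigmentation and STC were normalised to the replicate control mean. Betamethasone was tested as betamethasone dipropionate, diflorasone as diflorasone diacetate.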

Danio rerio embryo [3] = test: EC50 Pericard size_Increase
Experimental: as §1

Danio rerio embryo [4] = test: EC50 Eye-jaw distance_Decrease; conditions: exposure time: 4 dpf
Experimental: as §1

Danio rerio embryo [5] = test: EC20 Any effect; higher = less potent
Experimental: as §1

Danio rerio embryo [6] = test: EC10 Any effect; higher = less potent; conditions: exposure time: 2 dpf
Experimental: as §1

Danio rerio embryo [7] = test: EC10 Pigmentation decrease; higher = less potent; conditions: exposure time: 4 dpf
Experimental: as §1

Danio rerio embryo [8] = test: EC20 Pigmentation decrease; higher = less potent; conditions: exposure time: 4 dpf
Experimental: as §1

Danio rerio embryo [9] = test: EC20 Pericard size_Increase; higher = less potent
Experimental: as §1

Danio rerio embryo [10] = test: EC10 Pericard size_Increase; higher = less potent
Experimental: as §1

Danio rerio embryo [11] = test: EC20 Eye-jaw distance_Decrease; higher = less potent; conditions: exposure time: 4 dpf
Experimental: as §1

Danio rerio embryo [12] = test: EC10 Eye-jaw distance_Decrease; higher = less potent; conditions: exposure time: 4 dpf
Experimental: as §1

Danio rerio embryo [13] = conditions: exposure time: 4 dpf
Experimental: as §1

Danio rerio embryo [14] = conditions: exposure time: 4 dpf; remark: listed apart in the source
Experimental: as §1

Danio rerio embryo [15] = test: EC50 Body length_Decrease; conditions: exposure time: 4 dpf
Experimental: as §1

Danio rerio embryo [16] = test: EC50 Bladder size_Decrease; conditions: exposure time: 4 dpf
Experimental: as §1

Danio rerio embryo [17] = test: EC10 LMR dark; higher = less potent; conditions: exposure time: 4 dpf
Experimental: as §1

Danio rerio embryo [18] = test: EC20 LMR dark; higher = less potent; conditions: exposure time: 4 dpf
Experimental: as §1

Danio rerio embryo [19] = test: EC10 Lack of SB; higher = less potent; conditions: exposure time: 4 dpf
Experimental: as §1

Danio rerio embryo [20] = test: EC20 Lack of SB; higher = less potent; conditions: exposure time: 4 dpf
Experimental: as §1

Danio rerio embryo [21] = test: EC20 Body length_Decrease; higher = less potent; conditions: exposure time: 4 dpf
Experimental: as §1

Danio rerio embryo [22] = test: EC10 Body length_Decrease; higher = less potent; conditions: exposure time: 4 dpf
Experimental: as §1

Danio rerio embryo [23] = test: EC10 Bladder size_Decrease; higher = less potent; conditions: exposure time: 4 dpf
Experimental: as §1

Danio rerio embryo [24] = test: EC20 Bladder size_Decrease; higher = less potent; conditions: exposure time: 4 dpf
Experimental: as §1

CC(=O)Nc1ccc(O)cc1 [acetaminophen]
Danio rerio embryo [1]
Conditions	spontaneous tail coiling frequency
230 µM	2.54
470 µM	1.5
940 µM	2.42
1875 µM	2.5
1876 µM	3.01
3750 µM	3.63
6250 µM	3.44
7500 µM	1.69
15000 µM	0

CCC(=O)OCC(=O)[C@@]1(OC(=O)CC)[C@@H](C)C[C@H]2[C@@H]3CCC4=CC(=O)C=C[C@]4(C)[C@@]3(F)[C@@H](O)C[C@@]21C [betamethasone dipropionate]
Conditions	EC10 Pericard size Increase [µM]	EC20 Any effect [µM]	EC20 Pericard size Increase [µM]	EC50 Any effect [µM]	EC50 Pericard size Increase [µM]	spontaneous tail coiling frequency
Danio rerio embryo [1], 0.02 µM	–	–	–	–	–	2.32
Danio rerio embryo [1], 0.099 µM	–	–	–	–	–	1.86
Danio rerio embryo [1], 0.198 µM	–	–	–	–	–	2.45
Danio rerio embryo [1], 0.991 µM	–	–	–	–	–	3.42
Danio rerio embryo [1], 1.24 µM	–	–	–	–	–	3.65
Danio rerio embryo [1], 2.48 µM	–	–	–	–	–	4
Danio rerio embryo [1], 3.964 µM	–	–	–	–	–	2.3
Danio rerio embryo [1], 4.95 µM	–	–	–	–	–	3.4
Danio rerio embryo [1], 9.909 µM	–	–	–	–	–	1.97
Danio rerio embryo [1], 9.91 µM	–	–	–	–	–	3.29
Danio rerio embryo [1], 19.82 µM	–	–	–	–	–	3.34
Danio rerio embryo [2], exposure time: 2 dpf	–	–	–	0.882	–	–
Danio rerio embryo [2], exposure time: 4 dpf	–	–	–	0.253	–	–
Danio rerio embryo [3], exposure time: 2 dpf	–	–	–	–	10.1	–
Danio rerio embryo [3], exposure time: 4 dpf	–	–	–	–	1.35	–
Danio rerio embryo [5], exposure time: 2 dpf	–	0.00431	–	–	–	–
Danio rerio embryo [5], exposure time: 4 dpf	–	0.000298	–	–	–	–
Danio rerio embryo [9], exposure time: 2 dpf	–	–	0.437	–	–	–
Danio rerio embryo [9], exposure time: 4 dpf	–	–	0.000209	–	–	–
Danio rerio embryo [10], exposure time: 2 dpf	0.07	–	–	–	–	–

Conditions	EC10 Any effect [µM]	EC10 Eye-jaw distance Decrease [µM]	EC10 Pigmentation decrease [µM]	EC20 Eye-jaw distance Decrease [µM]	EC20 Pigmentation decrease [µM]	EC50 Eye-jaw distance Decrease [µM]
Danio rerio embryo [4]	–	–	–	–	–	13.1
Danio rerio embryo [6]	0.000192	–	–	–	–	–
Danio rerio embryo [7]	–	–	1.61	–	–	–
Danio rerio embryo [8]	–	–	–	–	8.44	–
Danio rerio embryo [11]	–	–	–	0.064	–	–
Danio rerio embryo [12]	–	0.003	–	–	–	–

Cc1cc2c(s1)Nc1ccccc1N=C2N1CCN(C)CC1 [Olanzapine]
Conditions	EC10 Bladder size Decrease [µM]	EC10 Body length Decrease [µM]	EC10 LMR dark [µM]	EC10 Lack of SB [µM]	EC20 Bladder size Decrease [µM]	EC20 Body length Decrease [µM]	EC20 LMR dark [µM]	EC20 Lack of SB [µM]	EC50 Bladder size Decrease [µM]	EC50 Body length Decrease [µM]	EC50 LMR dark [µM]	EC50 Lack of SB [µM]
Danio rerio embryo [13]	–	–	–	–	–	–	–	–	–	–	–	9.71
Danio rerio embryo [14]	–	–	–	–	–	–	–	–	–	–	24	–
Danio rerio embryo [15]	–	–	–	–	–	–	–	–	–	43.8	–	–
Danio rerio embryo [16]	–	–	–	–	–	–	–	–	9.13	–	–	–
Danio rerio embryo [17]	–	–	5.65	–	–	–	–	–	–	–	–	–
Danio rerio embryo [18]	–	–	–	–	–	–	9.63	–	–	–	–	–
Danio rerio embryo [19]	–	–	–	8.09	–	–	–	–	–	–	–	–
Danio rerio embryo [20]	–	–	–	–	–	–	–	8.65	–	–	–	–
Danio rerio embryo [21]	–	–	–	–	–	24.7	–	–	–	–	–	–
Danio rerio embryo [22]	–	17.7	–	–	–	–	–	–	–	–	–	–
Danio rerio embryo [23]	7.17	–	–	–	–	–	–	–	–	–	–	–
Danio rerio embryo [24]	–	–	–	–	7.84	–	–	–	–	–	–	–

Conditions	EC10 Pericard size Increase [µM]	EC20 Pericard size Increase [µM]	EC50 Pericard size Increase [µM]	spontaneous tail coiling frequency
Danio rerio embryo [1], 5.4 µM	–	–	–	2.35
Danio rerio embryo [1], 8.1 µM	–	–	–	2.37
Danio rerio embryo [1], 12.1 µM	–	–	–	2.38
Danio rerio embryo [1], 18.1 µM	–	–	–	1.89
Danio rerio embryo [1], 27.2 µM	–	–	–	2.465
Danio rerio embryo [1], 32 µM	–	–	–	2.44
Danio rerio embryo [3], exposure time: 4 dpf	–	–	53.1	–
Danio rerio embryo [9], exposure time: 4 dpf	–	34.1	–	–
Danio rerio embryo [10], exposure time: 4 dpf	26.4	–	–	–
